Patent US12110279B2, “Triazolones, tetrazolones, and imidazolones, or their salts, and pharmaceutical compositions comprising the same” (Yuhan Corporation, priority 2021, dated 2024)
Structures can show the parent of a compound that is named as a salt. Where two headings read alike, the source gives them in different places. One block for each compound: values may come before it.

Columns and labels:
Type in all cases: biochemical
recombinant human VAP-1 = molecular target: T1, recombinant human VAP-1 (Homo sapiens, UniProt Q16853); assay: Amplex Red HRP-coupled amine oxidase activity evaluation, recombinant human VAP-1; conditions: substrate 1 mM benzylamine; 30 min preincubation at 37° C.; read-out: Inhibitory Activity (IC50, nM) human VAP-1
T1 construct: purchased R&D systems
T1 sequence (Q16853 1-763): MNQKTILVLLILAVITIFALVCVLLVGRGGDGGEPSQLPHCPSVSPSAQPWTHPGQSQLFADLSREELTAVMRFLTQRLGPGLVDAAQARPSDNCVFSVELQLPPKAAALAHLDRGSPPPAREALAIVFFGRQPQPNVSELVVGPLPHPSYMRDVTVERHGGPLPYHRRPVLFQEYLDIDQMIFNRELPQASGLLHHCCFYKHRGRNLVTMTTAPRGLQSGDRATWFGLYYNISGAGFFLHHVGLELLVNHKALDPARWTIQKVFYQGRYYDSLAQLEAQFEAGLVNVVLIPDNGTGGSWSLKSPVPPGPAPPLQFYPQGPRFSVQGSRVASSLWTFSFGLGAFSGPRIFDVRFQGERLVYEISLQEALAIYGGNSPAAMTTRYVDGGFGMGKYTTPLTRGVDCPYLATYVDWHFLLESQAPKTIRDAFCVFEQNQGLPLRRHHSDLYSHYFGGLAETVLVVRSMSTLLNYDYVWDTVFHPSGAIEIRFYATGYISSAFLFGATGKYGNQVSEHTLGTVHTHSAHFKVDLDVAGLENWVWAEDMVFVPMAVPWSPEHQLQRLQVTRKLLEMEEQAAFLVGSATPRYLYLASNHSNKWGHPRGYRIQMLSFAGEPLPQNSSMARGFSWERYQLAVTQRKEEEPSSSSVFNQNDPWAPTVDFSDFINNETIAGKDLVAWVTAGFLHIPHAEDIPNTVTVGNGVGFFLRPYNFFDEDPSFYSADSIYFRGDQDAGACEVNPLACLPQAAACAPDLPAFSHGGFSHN
Protocol: (§1) The compounds according to the present technology were evaluated in terms of activity on recombinant human VAP-1 (R&D systems) by measuring the level of hydrogen peroxide in horseradish peroxidase (HRP)-coupled reaction using Amplex Red Hydrogen Peroxide Assay Kit (Molecular Probes, Invitrogen, USA). The experiment was carried out at room temperature using benzylamine as a substrate. In the HRP-coupled reaction, hydrogen peroxide oxidation of 10-acetyl-3,7-dihydroxyphenoxazine (Amplex Red reagent) produces resorufin, which is a highly fluorescent compound. Briefly, the test compound was dissolved in dimethyl sulfoxide (DMSO) at a concentration of 20 mM. The dose-response assessment was made by 1:3 serial dilution in DMSO, thereby creating an 8-point curve. The concentration of the upper part was controlled according to the efficacy of the compounds, followed by dilution with a reaction buffer solution to obtain a final DMSO concentration of less than 1%. To each well of a 96 black well plate, human VAP-1 purified in 50 mM sodium phosphate buffer solution (pH7.4) was added. The test compounds dissolved in DMSO were incubated with the human VAP-1 enzymes at 37° C. for 30 minutes. After 30-minute incubation, each well was added with a reaction mixture containing 200 uM Amplex Red reagent prepared from 50 mM sodium phosphate buffer solution (pH 7.4), 1 mM benzylamine, and 1 U/mL HRP. Fluorescence intensity was measured at several time points during 1-2 hours using a microplate reader (Flexstation3, Molecular Devices) under the wavelength condition exciting at 544 nm and reading the emission at 590 nm. The inhibitory effect of the compounds was measured as a decrease (%) in the signal rate as compared to the control group without any inhibitor (only diluted DMSO). Data was fixed to a logistic model with four variables and IC50 value was calculated using GraphPad Prism program.

[1] = molecular target: T2, recombinant human MAO-A (monoamine oxidase-A) (Homo sapiens, UniProt P21397); assay: Amplex Red HRP-coupled amine oxidase activity evaluation, recombinant human MAO-A; conditions: substrate 0.5 mM tyramine; read-out: Inhibitory Activity (IC50, nM) MAO-A
T2 construct: purchased Sigma-Aldrich
T2 sequence (P21397 1-527): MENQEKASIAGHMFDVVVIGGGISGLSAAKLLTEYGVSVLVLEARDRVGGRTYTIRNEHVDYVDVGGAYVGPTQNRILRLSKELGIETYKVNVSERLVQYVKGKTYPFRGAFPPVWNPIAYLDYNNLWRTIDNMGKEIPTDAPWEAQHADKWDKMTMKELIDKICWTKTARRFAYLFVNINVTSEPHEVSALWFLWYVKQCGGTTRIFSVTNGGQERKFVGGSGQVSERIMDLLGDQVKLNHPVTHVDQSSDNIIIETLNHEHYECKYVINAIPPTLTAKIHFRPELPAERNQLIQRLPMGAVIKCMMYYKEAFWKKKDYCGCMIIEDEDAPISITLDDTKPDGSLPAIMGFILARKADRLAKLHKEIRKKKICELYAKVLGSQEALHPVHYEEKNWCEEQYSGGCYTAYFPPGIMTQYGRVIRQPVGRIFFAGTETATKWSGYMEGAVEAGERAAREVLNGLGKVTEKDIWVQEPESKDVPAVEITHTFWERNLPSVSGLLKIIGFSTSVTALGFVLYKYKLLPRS
Protocol: [The source words this procedure for another target and says it was used here with some conditions changed.] as §1

[2] = molecular target: T3, recombinant human MAO-B (monoamine oxidase-B) (Homo sapiens, UniProt P27338); assay: Amplex Red HRP-coupled amine oxidase activity evaluation, recombinant human MAO-B; conditions: substrate 1 mM benzylamine; read-out: Inhibitory Activity (IC50, nM) MAO-B
T3 construct: purchased Sigma-Aldrich
T3 sequence (P27338 1-520): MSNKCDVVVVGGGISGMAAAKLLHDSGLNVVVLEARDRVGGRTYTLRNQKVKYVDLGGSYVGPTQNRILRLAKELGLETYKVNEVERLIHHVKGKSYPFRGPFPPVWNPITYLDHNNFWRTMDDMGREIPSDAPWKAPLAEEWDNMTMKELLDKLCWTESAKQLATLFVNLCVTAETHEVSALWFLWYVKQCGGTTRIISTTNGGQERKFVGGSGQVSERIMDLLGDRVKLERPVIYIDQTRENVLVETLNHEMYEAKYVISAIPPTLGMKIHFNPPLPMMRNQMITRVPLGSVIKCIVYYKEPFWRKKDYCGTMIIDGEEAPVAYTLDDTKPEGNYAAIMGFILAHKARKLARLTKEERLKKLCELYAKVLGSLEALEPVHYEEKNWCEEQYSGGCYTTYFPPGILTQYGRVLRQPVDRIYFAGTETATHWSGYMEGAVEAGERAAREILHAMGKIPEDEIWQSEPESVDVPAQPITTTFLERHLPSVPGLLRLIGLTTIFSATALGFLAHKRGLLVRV
Protocol: [The source words this procedure for another target and says it was used here with some conditions changed.] as §1

[3] = molecular target: T4, recombinant human DAO (diamine oxidase) (Homo sapiens, UniProt P19801); assay: Amplex Red HRP-coupled amine oxidase activity evaluation, recombinant human DAO
T4 construct: purchased R&D systems
T4 sequence (P19801 20-751): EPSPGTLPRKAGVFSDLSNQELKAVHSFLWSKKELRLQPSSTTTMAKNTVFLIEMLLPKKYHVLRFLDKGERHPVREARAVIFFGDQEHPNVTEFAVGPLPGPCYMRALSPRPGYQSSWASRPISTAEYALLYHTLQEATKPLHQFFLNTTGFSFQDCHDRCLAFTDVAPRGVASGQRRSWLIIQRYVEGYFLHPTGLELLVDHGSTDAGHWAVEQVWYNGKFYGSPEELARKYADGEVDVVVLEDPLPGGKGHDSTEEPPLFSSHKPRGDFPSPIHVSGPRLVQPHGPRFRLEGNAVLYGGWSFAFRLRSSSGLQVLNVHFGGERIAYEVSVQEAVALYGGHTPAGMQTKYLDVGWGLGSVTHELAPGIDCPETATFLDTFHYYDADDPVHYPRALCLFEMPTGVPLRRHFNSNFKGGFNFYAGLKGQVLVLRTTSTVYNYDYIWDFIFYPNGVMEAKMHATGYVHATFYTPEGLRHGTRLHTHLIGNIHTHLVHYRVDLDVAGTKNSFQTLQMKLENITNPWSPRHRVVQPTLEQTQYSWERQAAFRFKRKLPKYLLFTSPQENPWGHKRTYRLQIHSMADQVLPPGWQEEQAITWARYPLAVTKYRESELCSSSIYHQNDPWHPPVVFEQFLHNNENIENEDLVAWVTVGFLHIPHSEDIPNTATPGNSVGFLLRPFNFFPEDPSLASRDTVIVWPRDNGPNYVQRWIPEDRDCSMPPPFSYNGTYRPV
Protocol: [The source words this procedure for another target and says it was used here with some conditions changed.] as §1

[4] = substrate 1 mM putrescine, read-out: Inhibitory Activity (IC50, nM) DAO

Structure (SMILES): CCn1cc(-c2ccc(Cn3c(C)nn(CC(CN)=C(F)F)c3=O)s2)cn1 [Example 1, 2-[2-(aminomethyl)-3,3-difluoro-allyl]-4-[[5-(1-ethylpyrazol-4-yl)-2-thienyl]methyl]-5-methyl-1,2,4-triazol-3-one trifluoroacetate]
IC50 (recombinant human VAP-1): 1.7 nM
IC50 [1]: > 100000 nM
IC50 [2]: > 100000 nM
IC50 [3, 4]: > 100000 nM

Structure (SMILES): Cc1nn(CC(CN)=C(F)F)c(=O)n1Cc1ccc(-c2ccc(S(C)(=O)=O)cc2)s1 [Example 2, 2-[2-(aminomethyl)-3,3-difluoro-allyl]-5-methyl-4-[[5-(4-methylsulfonylphenyl)-2-thienyl]methyl]-1,2,4-triazol-3-one trifluoroacetate]
IC50 (recombinant human VAP-1): 1.8 nM
IC50 [1]: > 100000 nM
IC50 [2]: > 100000 nM
IC50 [3, 4]: > 100000 nM

Structure (SMILES): Cc1nn(CC(CN)=C(F)F)c(=O)n1Cc1ccc(-c2ccc(N3CCNCC3)cc2)s1 [Example 3, 2-[2-(aminomethyl)-3,3-difluoro-allyl]-5-methyl-4-[[5-(4-piperazin-1-ylphenyl)-2-thienyl]methyl]-1,2,4-triazol-3-one di-trifluoroacetate]
IC50 (recombinant human VAP-1): 18 nM
IC50 [1]: > 100000 nM
IC50 [2]: > 100000 nM
IC50 [3, 4]: > 100000 nM

Structure (SMILES): Cc1nn(CC(CN)=C(F)F)c(=O)n1Cc1ccc(-c2ccc(N(C)C)nc2)s1 [Example 5, 2-[2-(aminomethyl)-3,3-difluoro-allyl]-4-[[5-[6-(dimethylamino)-3-pyridyl]-2-thienyl]methyl]-5-methyl-1,2,4-triazol-3-one trifluoroacetate]
IC50 (recombinant human VAP-1): 2 nM
IC50 [1]: > 100000 nM
IC50 [2]: > 100000 nM
IC50 [3, 4]: > 100000 nM

Structure (SMILES): Cc1nn(CC(CN)=C(F)F)c(=O)n1Cc1ccc(-c2ccc3c(c2)OCO3)s1 [Example 6, 2-[2-(aminomethyl)-3,3-difluoro-allyl]-4-[[5-(1,3-benzodioxol-5-yl)-2-thienyl]methyl]-5-methyl-1,2,4-triazol-3-one trifluoroacetate]
IC50 (recombinant human VAP-1): 2.5 nM
IC50 [1]: > 100000 nM
IC50 [2]: > 100000 nM
IC50 [3, 4]: > 100000 nM

Structure (SMILES): NCC(Cn1nnn(-c2cccc(-c3ccc(N4CCNCC4)cc3)c2)c1=O)=C(F)F [Example 11, 1-[2-(aminomethyl)-3,3-difluoro-allyl]-4-[3-(4-piperazin-1-ylphenyl)phenyl]tetrazol-5-one trifluoroacetate]
IC50 (recombinant human VAP-1): 7 nM
IC50 [1]: > 100000 nM
IC50 [2]: > 100000 nM
IC50 [3]: 351 nM

Stronger by IC50 (recombinant human VAP-1), values ahead:

IC50 (recombinant human VAP-1): 1.5 nM
IC50 [1]: > 100000 nM
IC50 [2]: > 100000 nM
IC50 [3, 4]: > 100000 nM
Structure (SMILES): CCn1cc(-c2ccc(Cn3c(C)nn(CC(CN)=C(F)F)c3=O)s2)ccc1=O [Example 4, 5-[5-[[1-[2-(aminomethyl)-3,3-difluoro-allyl]-3-methyl-5-oxo-1,2,4-triazol-4-yl]methyl]-2-thienyl]-1-ethyl-pyridin-2-one trifluoroacetate]

IC50 (recombinant human VAP-1): 1 nM
IC50 [1]: > 100000 nM
IC50 [2]: > 100000 nM
IC50 [3, 4]: > 100000 nM
Structure (SMILES): Cc1cc(-c2ccc(Cn3c(C)nn(CC(CN)=C(F)F)c3=O)s2)cc2c1NC(=O)CC2 [Example 7, 6-[5-[[1-[2-(aminomethyl)-3,3-difluoro-allyl]-3-methyl-5-oxo-1,2,4-triazol-4-yl]methyl]-2-thienyl]-8-methyl-3,4-dihydro-1H-quinolin-2-one trifluoroacetate]

IC50 (recombinant human VAP-1): 1 nM
IC50 [1]: > 100000 nM
IC50 [2]: > 100000 nM
IC50 [3, 4]: > 100000 nM
Structure (SMILES): Cc1nn(CC(CN)=C(F)F)c(=O)n1Cc1ccc(-c2ccc3c(c2)CCC(=O)N3C)s1 [Example 8, 6-[5-[[1-[2-(aminomethyl)-3,3-difluoro-allyl]-3-methyl-5-oxo-1,2,4-triazol-4-yl]methyl]-2-thienyl]-1-methyl-3,4-dihydroquinolin-2-one trifluoroacetate]

IC50 (recombinant human VAP-1): 0.4 nM
IC50 [1]: > 100000 nM
IC50 [2]: 203 nM
IC50 [3, 4]: 3.1 nM
Structure (SMILES): CCn1cc(-c2ccc(-n3nnn(CC(CN)=C(F)F)c3=O)s2)ccc1=O [Example 9, 5-[5-[4-[2-(aminomethyl)-3,3-difluoro-allyl]-5-oxo-tetrazol-1-yl]-2-thienyl]-1-ethyl-pyridin-2-one trifluoroacetate]

IC50 (recombinant human VAP-1): 0.4 nM
IC50 [1]: > 100000 nM
IC50 [2]: 53200 nM
IC50 [3]: 2.2 nM
Structure (SMILES): CS(=O)(=O)c1ccc(-c2cccc(-n3nnn(CC(CN)=C(F)F)c3=O)c2)cc1 [Example 10, 1-[2-(aminomethyl)-3,3-difluoro-allyl]-4-[3-(4-methylsulfonylphenyl)phenyl]tetrazol-5-one trifluoroacetate]
